{"source": "patent US11062797B2", "about": "“Method and system for obtaining and using pharmacokinetic data in drug administration” (Continuous Precision Medicine, priority 2014, dated 2021)", "key": {"[1]": {"tested_on": "DISE patients", "settings": "cited from earlier work; for average time for the procedures: DeVito et al."}, "[2]": {"tested_on": "patients with severe OSA", "description": "Ninety-seven (97) patients were enrolled in a prospective study of transoral robotic resection of the tongue base; the examples described below provided a secondary outcome measure of that study. […] The apnea-hypopnea index (AHI) for each patient was recorded from the sleep study. For each patient the saturation nadirs from the sleep study and DISE were paired for statistical analysis. […] The system utilizes the Cortinez pharmacokinetic model (Cortinez et al., Br J Anaesth. 2010; 105:448-56.) and the Johnson pharmacodynamic model (Johnson et al., Anesth Analg. 2008; 106:471-9.) to determine an infusion sequence comprised of a bolus, initial infusion, secondary infusion, and a time for transition from the initial to secondary infusion using the age and weight of the individual patient. This sequence minimizes the difference between the predicted probability of loss of responsiveness and a linear ramp. This is termed probability ramp control (PRC). A brief description of the mathematical approach can be found below. The MATLAB® program (an embodiment of the system) performed the calculations, indicated the time to perform the transition to the second infusion, and logged the time at which obstruction was noted.\nAll DISE studies were performed in an operating room with standard monitors and resuscitation equipment. A single otorhinolaryngologist performed each nasopharyngoscopy. […] All DISE patients received 2 liters per minute supplemental oxygen via a nasal cannula placed in the mouth. Supplemental oxygen was not used during polysomnography studies (as is typical for this procedure). Pulse oximetry data was recorded for subsequent analysis from a Nellcor pulse oximeter (Covidien, Mansfield, Mass.) at 30-second intervals by the DocuSys anesthesia record keeping system. […] A Baxter AS50 pump (Baxter, Deerfield, Ill.) was programmed with the initial bolus and infusion rates as determined by the control system. […] With the bronchoscope in position to observe the velopharynx, the sedation sequence proceeded until the onset of obstruction was noted. This was identified as the obstruction clinical endpoint. Observation of the pharynx was performed for a sufficient period to obtain images of the anatomic site(s) of obstruction. The infusion was then terminated and the patient allowed to recover. Patient characteristics and derived pharmacokinetic measures were assessed for normal distribution using the Lilliefors test at 5% significance level using the Statistics Toolbox of MATLAB® 8.0 (MathWorks, Natick, Mass.). […] Comparison of saturation nadirs from DISE and polysomnography was performed with both the paired and unpaired Student's t-test. […] No power analysis was performed for this study, as it was a secondary outcome measure for the larger study of transoral robotic surgery."}, "[3]": {"tested_on": "endoscopic sedation patients", "settings": "anesthetist-administered propofol sedation; cited from earlier work"}, "[4]": {"tested_on": "patients scheduled for elective esophagogastroduodenoscopy (EGD)", "settings": "for Maximum Effect Site: Cortinez model estimate; for Maximum Effect Site / Target Effect Site / Time to target: median (IQR); for Target Effect Site: at loss of responsiveness to nasopharyngeal airway placement; for patients with oxygen saturation values below 90%: 100% oxygen via Robertazzi airway", "description": "In addition to ASA standard monitors, respiratory inductance plethysmography (RIP) (Ambulatory Monitoring Inc, Armonk, N.Y.), SEDLine® patient state index (PSI) (Masimo Corp, Irvine, Calif.) and RAD87 pulse oximeter (Masimo Corp, Irvine, Calif.) were applied. All patients received 50 μg of fentanyl immediately prior to initiation of sedation. […] In the experimental arm, patient age and weight were used by the PRC algorithm to calculate bolus, infusion1, infusion2, and time for transition from infusion1 to infusion2. These numbers were reviewed by an investigator prior to initiation of sedation, and when the patient could tolerate airway placement, the software determined the maintenance infusion to maintain the effect-site concentration at the value existing at that time. Custom software written in Labview 2012 (National Instruments, Austin, Tex.) performed these calculations, transmitted the infusion rates to a Graseby 3400 pump (Marcal Medical, Millersville, Md.), and acquired data from the monitors.\nAll patients were preoxygenated using a Mapleson circuit at oxygen flows greater than 10 liters per minute. Following placement of the Robertazzi airway, the Mapleson circuit was connected to the airway via the connector from an endotracheal tube and the adjustable pressure limit valve closed, assuring continuous flow of 100% oxygen into the hypopharynx.\nIn experimental patients, the CRNA could request additional boluses or changes in infusion rates as they saw fit. […] This measure is reported in two ways. The first is termed “adjustment dose”, which is the cumulative absolute value of the difference between the intended trajectory and the actual administration. The second is the “intended ratio”, which is the ratio of the dose delivered on the intended trajectory and the actual administration. These measures are depicted in FIG. 7. In FIG. 7, the dotted line indicates the actual infusion rates, while the solid line indicates the intended trajectory (fixing the infusion rate at 300 μg/kg/min).\nVentilatory depression was assessed from respiratory inductance plethysmography signals. The signals were filtered by ensemble empirical mode decomposition employing 450 realizations and noise scaled to 40% of signal power. The dominant mode was used for the Huang-Hilbert Transform (HHT). Minute ventilation was computed as the product of the respiratory rate times the magnitude of volume change at one second intervals. Baseline ventilation was determined from several breaths prior to initiation of sedation; subsequent measurements were normalized by this baseline value. These values were grouped into one minute epochs and the median of values less than 100% obtained. Values above 100% were excluded for two reasons.\nOxygen saturation was acquired from the RAD87 at one second intervals, as was the patient state index. Obvious artifacts such as sensor dislodgement were excluded from analysis. Desaturation is reported as cumulative time below specified saturation in the range from 54% to 90%.\nEffect site estimates were calculated using the Cortinez model employing the nominal values, with an adjoined effect compartment. The ke0 was chosen to yield a time to peak effect of 1.6 minutes. MATLAB® code for the state-space implementation of this model with observation of the effect site is available on the OpenTCI website."}, "[5]": {"settings": "Nominal Cortinez model; cited from earlier work"}}, "note": "Where “and” joins values, the source holds several entries; their conditions need not be identical. Equal values may be shown once. Read-outs that look alike come from different tables or passages of the source.", "data": [{"smiles": "CC(C)c1cccc(C(C)C)c1O", "note": "[propofol]", "values": [{"measurement": "average time for the procedures", "setting": "[1]; TCI group", "result": 15.2, "unit": "min"}, {"measurement": "patients demonstrating sedation instability", "setting": "[1]; TCI group", "result": 5, "unit": "%"}, {"measurement": "average time for the procedures", "setting": "[1]; manual control group", "result": 6.2, "unit": "min"}, {"measurement": "patients demonstrating sedation instability", "setting": "[1]; manual propofol bolus group", "result": 65, "unit": "%"}, {"measurement": "median saturation nadir during DISE", "setting": "[2]; 2 liters per minute supplemental oxygen, median ± IQR, polysomnography 81.0±11.25%", "result": "91.4±5.1", "unit": "%"}, {"measurement": "predicted effect-site concentration for obstruction", "setting": "[2]; Cortinez model, ke0 for time to peak effect of 1.6 minutes", "result": "4.2 ± 1.3", "unit": "µg/mL"}, {"measurement": "median time to obstruction", "setting": "[2]; DISE, PRC infusion, n=97, median (IQR)", "result": "3.8 (IQR 1.2) minutes"}, {"measurement": "mean predicted effect-site concentration of propofol at obstruction", "setting": "[2]; DISE, PRC infusion, Cortinez model with adjoined effect compartment", "result": "4.2 ± 1.3", "unit": "µg/mL"}, {"measurement": "adverse events", "setting": "[2]; DISE, all patients", "result": "no adverse events"}, {"measurement": "mean time to obstruction", "setting": "[2]; control system according to Example 1", "result": 3.9, "unit": "min"}, {"measurement": "lowest saturation measured", "setting": "[2]; oxygen at 2 liters per minute via oral cannula", "result": 74, "unit": "%"}, {"measurement": "median saturation nadir during DISE", "setting": "[2]; sub-cohort of 7 patients whose nadir was not lower during polysomnography", "result": 85, "unit": "%"}, {"measurement": "BIS values, mean and standard deviation", "setting": "[3]", "result": "72.1±15.1"}, {"measurement": "Maximum Effect Site", "setting": "[4]; Control (CRNA dosing)", "result": "6.1 (3.5) μg/ml"}, {"measurement": "Target Effect Site", "setting": "[4]; Control (CRNA dosing)", "result": "4.8 (1.6) μg/ml"}, {"measurement": "Time to target", "setting": "[4]; Control (CRNA dosing)", "result": "2 (2.2) min"}, {"measurement": "Maximum Effect Site", "setting": "[4]; Experimental (PRC)", "result": "5.3 (4.6) NS μg/ml"}, {"measurement": "Target Effect Site", "setting": "[4]; Experimental (PRC)", "result": "4.9 (2.9) NS μg/ml"}, {"measurement": "Time to target", "setting": "[4]; Experimental (PRC)", "result": "3.9 (1.6) min and 3.9 (1.6) * min"}, {"measurement": "additional time to achieve endoscope placement", "setting": "[4]; PRC system versus control", "result": 111, "unit": "s"}, {"measurement": "patients identified at targets below 3.9 μg/ml", "setting": "[4]; control group (CRNA dosing)", "result": "No control patients"}, {"measurement": "patients with oxygen saturation values below 90%", "setting": "[4]; control patients", "result": 3}, {"measurement": "patients identified at targets below 3.9 μg/ml", "setting": "[4]; experimental group (PRC)", "result": "5/20"}, {"measurement": "patients with targets below effect-site concentrations of 3.9 μg/ml", "setting": "[4]; experimental group (PRC)", "result": 20, "unit": "%"}, {"measurement": "patients with oxygen saturation values below 90%", "setting": "[4]; experimental patients", "result": 2}, {"measurement": "Q2", "setting": "[5]", "result": 3.2, "unit": "L/min"}, {"measurement": "V3", "setting": "[5]", "result": 53.8, "unit": "L"}]}]}
